The text below walks through data of patent US12497515B2, “Fluorogenic pH-sensitive compounds and their methods of use” (LIFE TECHNOLOGIES CORPORATION, priority 2020, dated 2025).

Data set [1] deals with Jurkat cells. The data set is described as follows: Apoptosis control experiments (CYQUANT Direct, PRESTOBLUE HS, CELLEVENT Caspase green). Type of data set: cell-based. As to conditions: 2 uM overnight. On the procedure:
In this study, Jurkat cells were grown in 0.1% DMSO vehicle control or 2 uM camptothecin overnight in normal cell culture conditions then harvested, counted, washed, labeled, and resuspended at matched total cell number at 2×10^6 cells per mL in complete culture medium and dispensed 100 uL (200,000 cells) per well (n=8 per measurement) before adding the indicated reagents for 1 hour. […] The apoptosis indicator CELLEVENT Caspase green (Thermo Fisher Scientific, Waltham, MA) was also added to the two samples matched in total cells per mL along with NUCBLUE Live (Thermo Fisher Scientific, Waltham, MA), and cells plated at 100,000 cells per well for HCA quantification on the […] CX5.

Data set [2] is described as follows: pH response kinetics (ring opening, absorbance at 637 nm). Type of data set: physicochemical. As to conditions: for pH response kinetics: stock in phosphate buffer pH 7.4 mixed with phosphate buffer pH 3.13, room temperature. How it is done:
The kinetics of the ring opening of Compound A, Compound C, and Compound H were studied by measuring absorbance changes at 637 nm (absorption maxima of the ring-opening states) with UV-Vis spectroscopy. Stock solutions of the three dyes were prepared in pH 7.4 phosphate buffer with concentration of 1.8 mM. […] Stock solutions (10 μL) containing the dyes (1.8 mM) in phosphate buffer (pH 7.4) were diluted 300 times with phosphate buffer (pH 3.13) to a final concentration of […] at pH 3.13. The absorption changes were recorded at room temperature at 637 nm.

Data set [3] in a line: pKa of the free compound (pH profile of fluorescence intensity). Type of data set: physicochemical. The conditions noted are these: series of pH buffers. On the procedure: FIG. 6 provides the pH profile of fluorescence intensity of Compound C at room temperature. Fluorescence was measured using 636 nm ex, 654 nm em, with 5 nm bandpass. Solutions were diluted to 5 uM with a series of pH buffers in triplicate in a 96-well clear-bottom black walled plate. Samples were measured on a Tecan Infinite M100 plate reader via top-read. RFU=relative fluorescence units.
FIG. 7 provides the pH profile of fluorescence intensity of Compound E at room temperature. Fluorescence was measured using 636 nm ex, 654 nm em, with 5 nm bandpass. Solutions were diluted to 5 uM with pH buffers in triplicate in a 96-well clear-bottom black walled plate. Samples were measured on a Tecan Infinite M100 plate reader via top-read. RFU=relative fluorescence units.
Fluorescence was measured using 636 nm excitation wavelength (ex), 654 nm emission wavelength (em), with 5 nm bandpass filter. Solutions were diluted to 5 uM with a series of pH buffers (see Table 3) in triplicate in a 96-well clear-bottom black walled plate. Samples were measured on a Tecan Infinite M100 plate reader via top-read.
Fluorescence was measured using 636 nm ex, 654 nm em, with 5 nm bandpass. Solutions were diluted to 5 uM with pH buffers in triplicate in a 96-well clear-bottom black walled plate. Samples were measured on a Tecan Infinite M100 plate reader via top-read.

Data set [4] deals with RAW macrophages. The data set can be described thus: Efferocytosis of labeled apoptotic Jurkat cells. As to conditions: incubated with RAW macrophages 1-3 hours, 4× and 10×. The data set is classed as cell-based. On the procedure:
FIGS. 43-44 show the efferocytosis from apoptotic cells with Compound C. In this study, Jurkat cells were grown in 0.1% DMSO control or 2 uM camptothecin overnight in normal cell culture conditions then harvested, counted, washed, labeled and resuspended per product description in complete culture medium at matched density before adding to RAW macrophages for assays of efferocytosis, or the phagocytosis of apoptotic cells.

Data set [5] concerns RAW macrophages. The data set can be described thus: Phagocytosis of CD4 opsonized Jurkat cells labeled with compound. Type of data set: cell-based. As to conditions: incubated with RAW macrophages 1-3 hours, 10×. On the procedure: In this study, Jurkat cells were grown as normal in complete medium then harvested, counted, washed, labeled, and resuspended per product description in complete culture medium before splitting into control and CD4 antibody treated samples. In brief, the cells were resuspended in PBS and labeled with either BSA control or CD4 antibody at 2 ug/mL for one hour at room temperature before washing 2× in PBS and adding to RAW macrophages.

Data set [6] concerns Jurkat cells. The data set is described as follows: Toxicity and turn-on response of labeled cells (PRESTOBLUE Cell Health Assay, Cy5 imaging). The data set is classed as cell-based. How it is done:
In this study, healthy Jurkat cells were grown and harvested in normal cell culture conditions, washed, counted, labeled and resuspended per product description in complete culture medium, and incubated overnight before testing for cell health and number with the PRESTOBLUE Cell Health Assay (Thermo Fisher Scientific, Waltham, MA). Cells with Compound C were, in parallel determinations, resuspended in the external reference pH buffer indicated and imaged on an EVOS M7000 for signal in the Cy5 channel from labeled cells at extracellular pH 4.5 (FIG. 42A, in red) and 7.5 (FIG. 42A, Inset). FIG. 42B is a graph showing control (left side) and compound C (right side).

Structures are written as SMILES.

Regarding `CC[C@@]1(O)C(=O)OCc2c1cc1n(c2=O)Cc2cc3ccccc3nc2-1` [Camptothecin, camptothecin], in the data set with Jurkat cells [1], the “apoptosis, intracellular caspase activity (CELLEVENT Caspase green)” value is reported as “substantial induction of apoptosis”; the “live cell number (CYQUANT Direct)” value is “fewer live cells”; the “overall vitality (PRESTOBLUE HS)” value is “decrease in overall vitality”.

Turning to `CC1(C)C=C(CS(=O)(=O)O)c2cc3c(c4c2N1CCC4)Oc1c(cc2c4c1CCCN4C(C)(C)C=C2CS(=O)(=O)O)C31c2c(Cl)ccc(Cl)c2C(=O)N1CCN1CCN(C(=O)CCOCCOCCOCCOCCC(=O)ON2C(=O)CCC2=O)CC1` [Compound A], the “absorbance as share of the expected maximum value (A=0.93)” value in data set [2] (after 3600 seconds (60 minutes) at pH 3.13) was determined as 5%. In addition, in data set [2] (after 3600 seconds (60 minutes) at pH 3.13, 6.6 μM), the “absorbance at 637 nm” value was determined as 0.05. Also, the pH response kinetics entry in data set [2] is listed as “slow”. Further, the pKa (usually the pH at which an ionisable group is half protonated) in data set [3] was determined as 5.2.

`CC1(C)C=C(CS(=O)(=O)O)c2cc3c(c4c2N1CCC4)Oc1c(cc2c4c1CCCN4C(C)(C)CC2CS(=O)(=O)O)C31c2c(Cl)ccc(Cl)c2C(=O)N1NC(=O)CCOCCOCCOCCOCCC(=O)Oc1c(F)c(F)cc(F)c1F` (centres unmarked) [Compound B] gave a pKa in data set [3] of 3.7.

Turning to `CC1(C)C=C(CS(=O)(=O)O)c2cc3c(c4c2N1CCC4)Oc1c(cc2c4c1CCCN4C(C)(C)C=C2CS(=O)(=O)O)C31c2c(Cl)ccc(Cl)c2C(=O)N1OCCOCCOCCOCCC(=O)Oc1c(F)c(F)cc(F)c1F` [Compound C], the “absorption at 637 nm (A)” value in data set [2] (immediately after mixing pH 7.4 stock into pH 3.13 buffer, 6.6 μM, maximum, kept constant) is reported as 0.93. Besides, the pH response kinetics entry in data set [2] is listed as “fast”. Further, the “efferocytosis signal, camptothecin treated vs control labeled Jurkat cells” value in the data set on RAW macrophages [4] is listed as “signal preferentially appearing from the camptothecin treated samples”. Moreover, in the data set with RAW macrophages [5], the “phagocytosis signal, CD4 antibody treated vs control labeled Jurkat cells” value was “signal preferentially appearing from the CD4 treated samples”. This compound gave a pKa in data set [3] of 4.87. Further, in the data set with Jurkat cells [6] (Jurkat cells, overnight, PRESTOBLUE), the “toxicity to labeled cells vs sham labeled control” value is “little toxicity”. Also, in the data set with Jurkat cells [6] (extracellular pH 4.5 vs 7.5, Cy5 channel), the “turn-on response of labeled cells” value is “large fold turn-on response”.

In data set [3], `CC1(C)C=C(CS(=O)(=O)O)c2cc3c(c4c2N1CCC4)Oc1c(cc2c4c1CCCN4C(C)(C)CC2CS(=O)(=O)O)C31c2c(Cl)c(Cl)c(Cl)c(Cl)c2C(=O)N1NC(=O)CCOCCOCCOCCOCCC(=O)Oc1c(F)c(F)cc(F)c1F` (centres unmarked) [Compound D] had a pKa of 4.3.

On to `CC1(C)C=C(CS(=O)(=O)O)c2cc3c(c4c2N1CCC4)Oc1c(cc2c4c1CCCN4C(C)(C)C=C2CS(=O)(=O)O)C31c2c(Cl)c(Cl)c(Cl)c(Cl)c2C(=O)N1OCCOCCOCCOCCC(=O)Oc1c(F)c(F)cc(F)c1F` [Compound E], for which, in data set [3], the pKa came to 4.67.

Take `CC1(C)C=C(CS(=O)(=O)O)c2cc3c(c4c2N1CCC4)Oc1c(cc2c4c1CCCN4C(C)(C)C=C2CS(=O)(=O)O)C31c2c(Cl)ccc(Cl)c2C(=O)N1OCC(=O)Oc1c(F)c(F)cc(F)c1F` [Compound F]: the pKa in data set [3] amounted to 5.5.

Turning to `CC(C)(ON1C(=O)c2c(Cl)ccc(Cl)c2C12c1cc3c4c(c1Oc1c2cc2c5c1CCCN5C(C)(C)C=C2CS(=O)(=O)O)CCCN4C(C)(C)C=C3CS(=O)(=O)O)C(=O)Oc1c(F)c(F)cc(F)c1F` [Compound G], the pKa in data set [3] stood at 6.5.

On to `CC1(C)C=C(CS(=O)(=O)O)c2cc3c(c4c2N1CCC4)Oc1c(cc2c4c1CCCN4C(C)(C)C=C2CS(=O)(=O)O)C31c2c(Cl)ccc(Cl)c2C(=O)N1CCOCCOCCOCCOCCC(=O)Oc1c(F)c(F)cc(F)c1F` [Compound H], for which the “absorbance as share of the expected maximum value (A=0.93)” value in data set [2] (after 6000 seconds (100 minutes) at pH 3.13) is on record as 5%. In data set [2] (after 6000 seconds (100 minutes) at pH 3.13, 6.6 μM), the “absorbance at 637 nm” value came to 0.05. In data set [2], the pH response kinetics result is on record as “slow”. Also, the pKa in data set [3] amounted to 5.2.
